System: p-IRS-1 and p-PI3K/Akt/GSK3β (Ser 9) pathways
Assay: Insulin resistance and downstream insulin signaling in APPswe/ind-overexpressing SH-SY5Y cells, immunoblot
Format: cell-based, human
Details: APPswe/ind SH-SY5YIR, Comp. C 10 μM with Os-pep 10 μM
Protocol: Human neuroblastoma SH-SY5Y cells were seeded (in 6-well culture plates for immunoblotting and in chamber slides for immunofluorescence) in DMEM (Dulbecco’s modified Eagle medium) containing 10% fetal bovine serum (FBS) and 1% antibiotics (penicillin-streptomycin) and incubated at 37 °C in humidified air containing 5% CO2. Once the cells reached 70–80% confluence, the cells were transfected using the pCAX vector containing the APPswe/ind gene using Lipofectamine 3000 (Life Technologies) according to the provider’s protocols. AdipoR1 siRNA (h) (SC-60123) and AMPK siRNA (h) (SC-45312) (Santa Cruz Biotechnology, Inc.) were used at a concentration of 10 μM per transfection and expressed for 72 h according to the manufacturer’s protocol (Santa Cruz Biotechnology, Inc.). A negative siRNA (Ambion, Thermo Fisher Scientific) was used as a control. Seventy-two hours after the transfections, the cells were exposed to Os-pep (10 μM) for 12 h and then subjected to immunoblotting and immunofluorescence analyses.
Human neuroblastoma SH-SY5Y cells were treated with 1 µM of insulin for 48 h to produce intrinsic insulin-resistant human neuroblastoma (SH-SY5YIR) cells. After 48 h, SH-SY5YIR cells were overexpressed with human APPswe/ind and subjected with AdipoR1 siRNA which further exposed to 10 nM insulin, Os-pep (10 µM) or compound C (10 µM) for 12 h, and then cell lysates were collected and proceeded accordingly for immunoblotting and ELISA.

SMILES: c1cc(-c2cnn3cc(-c4ccc(OCCN5CCCCC5)cc4)cnc23)ccn1 [Comp. C, reference compound]
- effect on insulin-sensitizing effect of Os-pep: inhibited the insulin-sensitizing effect of Os-pep

— PMC8042910, “Adiponectin-mimetic novel nonapeptide rescues aberrant neuronal metabolic-associated memory deficits in Alzheimer’s disease” (Molecular Neurodegeneration, 2021)
